pIC50: −log10 of the molar value.
Tests used:
MCF7 [1] = assay: Anticancer activity against human MCF7 cells assessed as cell growth inhibition measured after 48 hrs by MTT assay; format: functional, cell-based; conditions: MCF7, 48 h
A549 [2] = assay: Anticancer activity against human A549 cells assessed as cell growth inhibition measured after 48 hrs by MTT assay; format: functional, cell-based; conditions: A549, 48 h
HCT-116 = assay: Anticancer activity against human HCT-116 cells assessed as cell growth inhibition measured after 48 hrs by MTT assay; format: functional, cell-based; conditions: HCT-116, 48 h
HepG2 [3] = assay: Anticancer activity against human HepG2 cells assessed as cell growth inhibition measured after 48 hrs by MTT assay; format: functional, cell-based; conditions: HepG2, 48 h
PC-3 = assay: Anticancer activity against human PC-3 cells assessed as cell growth inhibition measured after 48 hrs by MTT assay; format: functional, cell-based; conditions: PC-3, 48 h
MCF7 [4] = assay: Anticancer activity against human MCF7 cells assessed as cell growth inhibition at 100 uM by MTT assay relative to control; format: functional
A549 [5] = assay: Anticancer activity against human A549 cells assessed as cell growth inhibition at 100 uM by MTT assay relative to control; format: functional
HepG2 [6] = assay: Anticancer activity against human HepG2 cells assessed as cell growth inhibition at 100 uM by MTT assay relative to control; format: functional
A-431 = assay: Anticancer activity against human A-431 cells assessed as cell growth inhibition at 100 uM by MTT assay relative to control; format: functional
FaDu = assay: Anticancer activity against human FaDu cells assessed as cell growth inhibition measured after 48 hrs; format: functional, cell-based

**Q.** How did the pIC50 (MCF7 [1]) turn out when `Cc1cc(=O)oc2cc(NC(=O)CN3CCCC3)ccc12` was run?
**A.** 5.32

**Q.** And the pIC50 (A549 [2])?
**A.** 5.36

**Q.** How did the pIC50 (HCT-116) turn out when `O=C(/C=C/c1ccc(F)cc1)[C@H]1[C@H](c2ccc(F)cc2)[C@H]2CSCN2[C@]12C(=O)Nc1ccc(Cl)cc12` was run?
**A.** 5.80

**Q.** And the pIC50 (HepG2 [3])?
**A.** ≤ 5.82

**Q.** And the pIC50 (PC-3)?
**A.** ≤ 6.10

**Q.** How did the inhibition at 100 µM (MCF7 [4]) turn out when `CCCCCCCCCCCCCCCC(=O)N1CCC[C@@H]1OP(=O)([O-])OCC[N+](C)(C)C` was run?
**A.** 22.6%

**Q.** And the inhibition at 100 µM (A549 [5])?
**A.** 4.7%

**Q.** And the inhibition at 100 µM (HepG2 [6])?
**A.** 10.1%

**Q.** And the inhibition at 100 µM (A-431)?
**A.** 0.3%

**Q.** How did the pIC50 (FaDu; Homo sapiens, FaDu, 48 h) turn out when `COc1ccccc1/C=C1\CN(/C=C/c2ccccc2)C[C@]2(C1=O)[C@H](c1ccccc1OC)[C@@H](Cc1ccccc1)NC21C(=O)Nc2ccccc21` (some centres not stated) was run?
**A.** ≤ 4.72

**Q.** What does the source list for `CCCCCCCC/C=C\CC(=O)N1CC[C@H](OP(=O)([O-])OCC[N+](C)(C)C)C1`?
**A.** inhibition at 100 µM (MCF7 [4]): 22.6%; inhibition at 100 µM (A549 [5]): 4.7%; inhibition at 100 µM (HepG2 [6]): 10.1%; inhibition at 100 µM (A-431): 0.3%

**Q.** Which inhibition at 100 µM (MCF7 [4]) does the source give for `CCCCCCCCCCCCCCCCCC/C=C\CCCCCCCC(=O)N1CCC[C@@H]1OP(=O)([O-])OCC[N+](C)(C)C` here?
**A.** 22.6%

**Q.** What about the inhibition at 100 µM (A549 [5]) of the same compound?
**A.** 4.7%

**Q.** And the inhibition at 100 µM (HepG2 [6])?
**A.** 10.1%

**Q.** What about the inhibition at 100 µM (A-431) of the same compound?
**A.** 0.3%

**Q.** Which results are given for `Cc1cc(=O)oc2cc(NC(=O)CN3CCC[C@@H]3C#N)ccc12`?
**A.** pIC50 (MCF7 [1]): 5.35; pIC50 (A549 [2]): 5.40

**Q.** With `NC(=O)[C@H]1CCCN1CC(=O)Nc1cc2ccccc2oc1=O` as the compound, how does the pIC50 (MCF7 [1]) read?
**A.** 6.45

**Q.** What about the pIC50 (A549 [2]) of the same compound?
**A.** 7.62

**Q.** How did the inhibition at 100 µM (MCF7 [4]) turn out when `CCCCCC/C=C\CCCCCCCC(=O)N1CCC[C@H]1OP(=O)([O-])OCC[N+](C)(C)C` was run?
**A.** 22.6%

**Q.** What about the inhibition at 100 µM (A549 [5]) of the same compound?
**A.** 4.7%

**Q.** And the inhibition at 100 µM (HepG2 [6])?
**A.** 10.1%

**Q.** What about the inhibition at 100 µM (A-431) of the same compound?
**A.** 0.3%

**Q.** How did the pIC50 (HCT-116) turn out when `O=C(/C=C/c1ccc(Br)cc1)[C@H]1[C@H](c2ccc(Br)cc2)[C@H]2CSCN2[C@]12C(=O)Nc1ccccc12` was run?
**A.** 5.52

**Q.** And the pIC50 (HepG2 [3])?
**A.** 6.10

**Q.** What about the pIC50 (PC-3) of the same compound?
**A.** ≤ 6.10

**Q.** With `O=C1Nc2ccccc2C12N[C@H](Cc1ccccc1)[C@@H](c1cccc([N+](=O)[O-])c1)[C@@]21CN(/C=C/c2ccccc2)C/C(=C\c2cccc([N+](=O)[O-])c2)C1=O` (some centres not stated) as the compound, how does the pIC50 (FaDu; Homo sapiens, FaDu, 48 h) read?
**A.** ≤ 4.72

**Q.** With `O=C1Nc2ccccc2C12N[C@H](Cc1ccccc1)[C@@H](c1ccc(Br)cc1)[C@@]21CN(/C=C/c2ccccc2)C/C(=C\c2ccc(Br)cc2)C1=O` (some centres not stated) as the compound, how does the pIC50 (FaDu; Homo sapiens, FaDu, 48 h) read?
**A.** ≤ 4.72

**Q.** `CCOC(=O)[C@H]1CCCN1CC(=O)Nc1ccc2c(C)cc(=O)oc2c1` was tested. Which pIC50 (MCF7 [1]) did it give?
**A.** 6.45

**Q.** What about the pIC50 (A549 [2]) of the same compound?
**A.** 7.62

**Q.** Which results are given for `CCCCCCCCCCCCCCCC(=O)N1CCC[C@H]1OP(=O)([O-])OCC[N+](C)(C)C`?
**A.** inhibition at 100 µM (MCF7 [4]): 22.6%; inhibition at 100 µM (A549 [5]): 71.6%; inhibition at 100 µM (HepG2 [6]): 10.1%; inhibition at 100 µM (A-431): 0.3%

**Q.** How did the pIC50 (FaDu; Homo sapiens, FaDu, 48 h) turn out when `Cc1cccc(/C=C2\CN(/C=C/c3ccccc3)C[C@]3(C2=O)[C@H](c2cccc(C)c2)[C@@H](Cc2ccccc2)NC32C(=O)Nc3ccccc32)c1` (some centres not stated) was run?
**A.** 4.66

**Q.** How did the pIC50 (MCF7 [1]) turn out when `Cc1cc(=O)oc2cc(NC(=O)[C@@H]3CCCN3S(=O)(=O)c3ccccc3)ccc12` was run?
**A.** 5.59

**Q.** What about the pIC50 (A549 [2]) of the same compound?
**A.** 4.74

**Q.** Which results are given for `O=C(/C=C/c1c(Cl)cccc1Cl)[C@H]1[C@H](c2c(Cl)cccc2Cl)[C@H]2CSCN2[C@]12C(=O)Nc1ccccc12`?
**A.** pIC50 (HCT-116): 5.80; pIC50 (HepG2 [3]): ≤ 5.82; pIC50 (PC-3): ≤ 6.10

**Q.** How did the pIC50 (FaDu; fadu) turn out when BLEOMYCIN was run?
**A.** 4.51

**Q.** How did the inhibition at 100 µM (MCF7 [4]) turn out when `CCCCCCCCCCCCCCCCC/C=C\CCCCCCCC(=O)N1CC[C@@H](OP(=O)([O-])OCC[N+](C)(C)C)C1` was run?
**A.** 22.6%

**Q.** What about the inhibition at 100 µM (A549 [5]) of the same compound?
**A.** 4.7%

**Q.** And the inhibition at 100 µM (HepG2 [6])?
**A.** 10.1%

**Q.** And the inhibition at 100 µM (A-431)?
**A.** 0.3%

**Q.** `O=C1Nc2ccccc2C12N[C@H](Cc1ccccc1)[C@@H](c1ccccc1)[C@@]21CN(/C=C/c2ccccc2)C/C(=C\c2ccccc2)C1=O` (some centres not stated) was tested. Which pIC50 (FaDu; Homo sapiens, FaDu, 48 h) did it give?
**A.** 4.72

**Q.** How did the inhibition at 100 µM (MCF7 [4]) turn out when `CCCCCC/C=C\CCCCCCCC(=O)N1CC[C@H](OP(=O)([O-])OCC[N+](C)(C)C)C1` was run?
**A.** 22.6%

**Q.** And the inhibition at 100 µM (A549 [5])?
**A.** 4.7%

**Q.** What about the inhibition at 100 µM (HepG2 [6]) of the same compound?
**A.** 10.1%

**Q.** What about the inhibition at 100 µM (A-431) of the same compound?
**A.** 0.3%

**Q.** `Cc1cc(=O)oc2cc(NC(=O)CN3CCC[C@@H]3C(N)=O)ccc12` was tested. Which pIC50 (MCF7 [1]) did it give?
**A.** 6.45

**Q.** What about the pIC50 (A549 [2]) of the same compound?
**A.** 7.62

**Q.** What does the source list for `N#C[C@H]1CCCN1CC(=O)Nc1cc2ccccc2oc1=O`?
**A.** pIC50 (MCF7 [1]): 5.36; pIC50 (A549 [2]): 5.36

**Q.** `CCOC(=O)[C@H]1CCCN1CC(=O)Nc1cc2ccccc2oc1=O` was tested. Which pIC50 (MCF7 [1]) did it give?
**A.** 5.03

**Q.** And the pIC50 (A549 [2])?
**A.** 5.51

**Q.** With `O=C(/C=C/c1cccs1)[C@H]1[C@H](c2cccs2)[C@H]2CSCN2[C@]12C(=O)Nc1ccccc12` as the compound, how does the pIC50 (HCT-116) read?
**A.** 5.80

**Q.** And the pIC50 (HepG2 [3])?
**A.** ≤ 5.82

**Q.** What about the pIC50 (PC-3) of the same compound?
**A.** ≤ 6.10

**Q.** How did the pIC50 (MCF7 [1]) turn out when `Cc1cc(=O)oc2cc(NC(=O)[C@@H]3CCCN3S(=O)(=O)c3ccc(Cl)cc3)ccc12` was run?
**A.** 5.15

**Q.** And the pIC50 (A549 [2])?
**A.** 4.56

**Q.** Which results are given for `O=C(/C=C/c1ccc2ccccc2c1)[C@H]1[C@H](c2ccc3ccccc3c2)[C@H]2CSCN2[C@]12C(=O)Nc1ccccc12`?
**A.** pIC50 (HCT-116): 5.80; pIC50 (HepG2 [3]): ≤ 5.82; pIC50 (PC-3): ≤ 6.10

Source: ChEMBL document CHEMBL5360530, “Structure activity relationship (SAR) and anticancer activity of pyrrolidine derivatives: Recent developments and future prospects (A review)” (Eur J Med Chem, 2023)
